Data published in patent publication US5734057A, “HIV protease inhibitors and intermediates” (Eli Lilly and Company, priority 1996, dated 1998).
Where two headings read alike, the source gives them in different places.

Key:
HIV-1 protease = target: T1, HIV-1 protease (Human immunodeficiency virus type 1 group M subtype B, UniProt P04585); assay: biochemical; conditions: for IC50: read-out: Inhibitory Activity, Fluorescence Assay IC50 (converted)
T1 construct: HIV-1 Protease
Method: These compounds may be assayed using two assays: (1) an enzyme inhibition assay, and (2) an antiviral cell culture assay.
This assay is described in detail in published European Patent Application (EPA) 0 526 009, herein incorporated by reference. Using this assay, a number of the compounds, prepared above, were assayed for HIV protease inhibitory activity.
The assay is unable to test compounds at less than a concentration of 0.16 ng/mL.

HIV = assay: Antiviral cell culture assay (XTT viability of HIV-infected cells); type: cell-based
From the text: As noted above, the compounds of formula (I) are useful as HIV protease inhibitors and for preparing HIV protease inhibitors. These compounds may be assayed using two assays: (1) an enzyme inhibition assay, and (2) an antiviral cell culture assay.
In addition, the compounds described in the present application may be tested using an antiviral cell culture assay as described in Weislow, O. S., J. of National Cancer Institute, 81(8), pages 577-586 (Apr. 19, 1989) herein incorporated by reference.
This assay compares the viability of HIV-infected cells in a cell culture medium relative to the viability of such cells in the presence of a test compound. The concentration of test compound necessary to inhibit 90% of the virus is then measured using the viability of the cells as an indicator of viral inhibition. This assay is carried out using cell lines that are sensitive to the lyric effects of HIV infection.
Specifically, this assay utilizes the metabolic reduction of a tetrazolium reagent, 2,3-bis[2-methoxy-4-nitro-5-sulfophenyl]-5-[(phenylamino carbonyl]-2H-tetrazolium hydroxide (XTT). In the presence of a viable cell, the tetrazolium reagent, XTT, ms reduced to provide XTT formazan which may be quantified using colorimetric determination (at 450 nm). The intensity of the chromogenic signal is directly proportional to the concentration of the XTT formazan, thus providing a measure of the quantity of viable cells.
The compounds prepared in Examples 9 and 10, above, were tested using this assay.

[1] = concentration that inhibits 50% of the enzyme, assay limit 0.16 ng/mL
[2] = Human immunodeficiency virus 1, concentration that inhibits 90%

Row | IC50 (HIV-1 protease; [1]) [nM] | IC90 (HIV; [2]) [nM] | inhibition at 0.00016 µg/mL (HIV-1 protease; at 0.16 ng/mL, read-out: % inhibition at stated concentration (IC74 (0.16))) [%] | IC90 (HIV; concentration that inhibits 90%) [nM] | SMILES | IC50 (HIV-1 protease) [nM]
1 | 0.315 | 17 | – | – | Cc1c(O)cccc1C(=O)N[C@@H](CSc1ccccc1)[C@H](O)CN1C[C@H]2CCS[C@H]2C[C@H]1C(=O)NC(C)(C)C [Example 9, N-t-Butyl-octahydro-5[2R-hydroxy-3R-N(2'-methyl-3'-hydroxyphenylcarbonyl)amino-4-phenylthio-butyl]-(3aR,7aS)-thieno[3,2-c] pyridine-(6S)-carboxamide] | –
2 | – | – | – | – | CC(C)(C)NC(=O)[C@@H]1C[C@@H]2SCC[C@@H]2CN1C[C@@H](O)[C@H](CSc1ccccc1)NC(=O)OCc1ccccc1 [Example 7, N-t-Butyl-octahydro-5[2R-hydroxy-4-thiophenyl-3R-N(benzyloxycarbonyl)amino-butyl]-(3aR,7aS)-thieno[3,2-c] pyridine-(6S)-carboxamide] | 3.32
3 | 6.3 | 2000 | – | – | CC(C)(C)NC(=O)[C@@H]1C[C@@H]2SCC[C@@H]2CN1C[C@@H](O)[C@H](Cc1ccccc1)NC(=O)OCc1ccccc1 [Example 5, N-t-Butyl-octahydro-5[2R-hydroxy-4-phenyl-3S-N(benzyloxycarbonyl)amino-butyl]-(3aR,7aS)-thieno[3,2-c]pyridine-(6S)-carboxamide] | –
4 | – | – | 74 | 10 | Cc1c(O)cccc1C(=O)N[C@@H](CSc1ccccc1)[C@H](O)CN1C[C@H]2CCS[C@H]2C[C@H]1C(=O)NC(C)(C)C [Example 10, N-t-Butyl-octahydro-5[2R-hydroxy-3R-N(2'-methyl-3'-hydroxyphenylcarbonyl)amino-4-phenylthio-butyl]-(3aR,7aS)-thieno[3,2-c] pyridine-(6S)-carboxamide methanesulfonate] | –
